Data as given in patent US11078198B2 (BRISTOL-MYERS SQUIBB COMPANY, priority 2017, dated 2021).

Columns and labels:
Fgf15 = experiment: Acute mouse in vivo assay, Fgf15 gene expression in ileum; settings: @ 6 h
Description: (§1) Acute Mouse In Vivo Assay:
(§2) Male, C57BL6/NTac mice, weighing 25-28 g, are purchased from Taconic Labs (Hudson, N.Y.) and maintained on Teklad Global 18% Protein Rodent Diet (Harlan Laboratories). After 1 week acclimation, mice are sorted into groups based upon body weight. Mice are administered a single oral dose of vehicle or experimental compound. Systemic compound exposure is evaluated in plasma derived from blood collected via the submandibular vein at 1 hour post-dose, and at study termination (6 h). At study termination, the animals are euthanized and rapidly dissected. The medial lobe of the liver is divided, with one half being homogenized and analyzed for compound exposure, and the other half saved in RNAlater (Thermo-Fisher Scientific). The ileum is also dissected and preserved in RNAlater. Tissue samples in RNAlater are homogenized with MP Biomedicals' beads. RNA is extracted using the MagMax-96 Total RNA Isolation kit (Thermo-Fisher Scientific) according to the manufacturer's protocol. RNA Concentration is determined with the Nano-Drop 8000 Spectrophotometer (Thermo Fisher). Reverse transcription is done with Invitrogen's SuperScript® VILO cDNA Synthesis Kit according to the manufacturer's protocol. Real time PCR is done with Applied Biosystems' Taqman PCR master mixture according to the manufacturer's protocol. All primers are purchased from Thermo-Fisher Scientific. Mouse genes analyzed include Nr0b2 (which encodes the small heterodimer partner, SHP), Abcb11 (which encodes the bile salt excretion pump, BSEP), Cyp7a1, & Cyp8b1 in liver, and Fgf15, Fabp6 (which encodes ileal bile acid binding protein, I-BABP), Slc51a (which encodes organic solute transporter alpha subunit, OSTA), and Slc51b (which encodes organic solute transporter beta subunit, OSTB) in the ileum. The statistical significant changes in FGF15 gene expression are expressed as fold increase and CYP7A1 expression as a percent reduction relative to vehicle control.

human FXR = target: T1, human FXR (Homo sapiens, UniProt Q96RI1); experiment: transient human FXR/Gal4-luciferase reporter assay; assay type: cell-based; settings: Gal4-hFXR transfected HEK293 reporter cells; relative to 8 μM GW-4064
T1 construct: expressed in transfected cells; host or cells: HEK293 cells stably carrying a 5xGal4-response-element firefly luciferase reporter, transiently transfected with pcDNA3.1-Gal4-FXR
T1 sequence (Q96RI1 262-486 limits assumed): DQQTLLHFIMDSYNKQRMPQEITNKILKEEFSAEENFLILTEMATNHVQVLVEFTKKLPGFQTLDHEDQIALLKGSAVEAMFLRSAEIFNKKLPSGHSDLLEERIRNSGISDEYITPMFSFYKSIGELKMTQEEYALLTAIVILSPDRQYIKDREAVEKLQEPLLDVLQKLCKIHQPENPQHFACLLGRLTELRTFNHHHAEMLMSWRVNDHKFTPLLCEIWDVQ
How it was run: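 HEK293 cells stably carrying a 5×Gal4-response-element firefly luciferase reporter, transiently transfected overnight with a CMV-driven Gal4 DNA-binding domain/human FXR ligand-binding domain fusion.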

Cyp7a1 = experiment: Acute mouse in vivo assay, Cyp7a1 gene expression in liver; settings: @ 6 h
Description: as §1, §2

Question: `COc1cc(C(=O)O)nc2ccc(N3CCC4(C=C(c5c(-c6c(Cl)cncc6Cl)noc5C5CC5)C4)CC3)cc12` [Example 108, 6-(2-(5-Cyclopropyl-3-(3,5-dichloropyridin-4-yl)isoxazol-4-yl)-7-azaspiro[3.5]non-1-en-7-yl)-4-methoxyquinoline-2-carboxylic acid] was tested. Which “Fgf15 expression, fold increase relative to vehicle control” value (Fgf15; single oral dose 3 mg/kg) did it give?
Answer: +14 ×

Question: And the EC50 (human FXR)?
Answer: 0.032 µM

Question: And the “Cyp7a1 expression, percent reduction relative to vehicle control” value (Cyp7a1; single oral dose 3 mg/kg)?
Answer: −97%

Question: Which results are given for `O=C(O)c1cc(F)c2nc(N3CCC4(C=C(c5c(-c6c(Cl)cccc6Cl)noc5C5CC5)C4)CC3)sc2c1` [Example 1, 2-(2-(5-Cyclopropyl-3-(2,6-dichlorophenyl)isoxazol-4-yl)-7-azaspiro[3.5]non-1-en-7-yl)-4-fluorobenzo[d]thiazole-6-carboxylic acid]?
Answer: Fgf15 expression, fold increase relative to vehicle control (Fgf15; single oral dose 3 mg/kg): +18 ×; Fgf15 expression, fold increase relative to vehicle control (Fgf15; single oral dose 30 mg/kg): +31 ×; Cyp7a1 expression, percent reduction relative to vehicle control (Cyp7a1; single oral dose 3 mg/kg): −99%; Cyp7a1 expression, percent reduction relative to vehicle control (Cyp7a1; single oral dose 30 mg/kg): −99%

Question: For `CS(=O)(=O)NC(=O)c1cc(C(F)(F)F)c2cc(N3CCC4(C=C(c5c(-c6c(Cl)cncc6Cl)noc5C5CC5)C4)CC3)ccc2n1` [Example 184, 6-(2-(5-Cyclopropyl-3-(3,5-dichloropyridin-4-yl)isoxazol-4-yl)-7-azaspiro[3.5]non-1-en-7-yl)-N-(methylsulfonyl)-4-(trifluoromethyl)quinoline-2-carboxamide], which “Fgf15 expression, fold increase relative to vehicle control” value (Fgf15; single oral dose 3 mg/kg) is on record?
Answer: +28 ×

Question: And the EC50 (human FXR)?
Answer: 0.073 µM

Question: What about the “Cyp7a1 expression, percent reduction relative to vehicle control” value (Cyp7a1; single oral dose 3 mg/kg) of the same molecule?
Answer: −99%

Question: `O=C(O)c1ccc2cc(N3CCC4(C=C(c5c(-c6c(Cl)cccc6Cl)noc5C5CC5)C4)CC3)ccc2n1` [Example 20, 6-(2-(5-Cyclopropyl-3-(2,6-dichlorophenyl)isoxazol-4-yl)-7-azaspiro[3.5]non-1-en-7-yl) quinoline-2-carboxylic acid] was tested. Which “Cyp7a1 expression, percent reduction relative to vehicle control” value (Cyp7a1; single oral dose 3 mg/kg) did it give?
Answer: −98%

Question: How did the “Cyp7a1 expression, percent reduction relative to vehicle control” value (Cyp7a1; single oral dose 3 mg/kg) turn out when `O=C(O)c1cc(C(F)(F)F)c2cc(N3CCC4(C=C(c5c(-c6c(Cl)cncc6Cl)noc5C5CC5)C4)CC3)ccc2n1` [Example 85, 6-(2-(5-cyclopropyl-3-(3,5-dichloropyridin-4-yl)isoxazol-4-yl)-7-azaspiro[3.5]non-1-en-7-yl)-4-(trifluoromethyl)quinoline-2-carboxylic acid] was run?
Answer: −94%
